{"source": "paper PMC5433425", "about": "(PeerJ, 2017)", "key": {"E. coli AG100tet [1]": {"system": "E. coli AG100tet", "assay": "EtBr efflux by real-time fluorometry", "conditions": "80 µM", "method": "Control tubes with only cells and cells with and without 0.4% glucose were included. The fluorescence was measured in a Rotor-Gene 3000 and the data was acquired every 30 s for 30 min at 37 °C. The efflux activity was quantified by comparing the fluorescence data obtained under conditions that promote efflux (presence of glucose and absence of efflux inhibitor) with the data from the control in which the bacteria are under conditions of no efflux (presence of an inhibitor and no energy source)."}, "E. coli AG100tet [2]": {"system": "E. coli AG100tet", "assay": "EtBr accumulation by real-time fluorometry", "conditions": "EtBr 2 µg/ml + inhibitor 80 µM"}, "E. coli AG100": {"system": "E. coli AG100", "assay": "Membrane permeability assay (Live/Dead BacLight)", "conditions": "for BacLight Live/Dead fluorescence 485/20,528/20 / BacLight Live/Dead fluorescence 485/20,590/35: raw well reading"}}, "note": "“And” between values parts separate entries of the source, which are not always exact repeats. Identical values can stand only once.", "data": [{"smiles": "CCCOc1ccc(-c2cc(OCCN3CCNCC3)c3ccccc3n2)cc1", "note": "[PQQ4R, 4-(2-(piperazin-1-yl)ethoxy)-2-(4-propoxyphenyl) quinolone]", "values": [{"measurement": "Fluorescence raw data, Channel Cycling A.530/585hp", "setting": "E. coli AG100tet [1]; cycle 34, without glucose", "value": 3.377}, {"measurement": "Fluorescence raw data, Channel Cycling A.530/585hp", "setting": "E. coli AG100tet [1]; cycle 35, + glucose", "value": 5.101}, {"measurement": "Fluorescence raw data, Channel Cycling A.530/585hp", "setting": "E. coli AG100tet [1]; cycle 35, without glucose", "value": 3.39}, {"measurement": "Fluorescence raw data, Channel Cycling A.530/585hp", "setting": "E. coli AG100tet [1]; cycle 36, + glucose", "value": 5.167}, {"measurement": "Fluorescence raw data, Channel Cycling A.530/585hp", "setting": "E. coli AG100tet [1]; cycle 36, without glucose", "value": 3.3989}, {"measurement": "Fluorescence raw data, Channel Cycling A.530/585hp", "setting": "E. coli AG100tet [1]; cycle 37, + glucose", "value": 5.0249}, {"measurement": "Fluorescence raw data, Channel Cycling A.530/585hp", "setting": "E. coli AG100tet [1]; cycle 37, without glucose", "value": 3.336}, {"measurement": "Fluorescence raw data, Channel Cycling A.530/585hp", "setting": "E. coli AG100tet [1]; cycle 38, + glucose", "value": 5.139}, {"measurement": "Fluorescence raw data, Channel Cycling A.530/585hp", "setting": "E. coli AG100tet [1]; cycle 38, without glucose", "value": 3.322}, {"measurement": "Fluorescence raw data, Channel Cycling A.530/585hp", "setting": "E. coli AG100tet [1]; cycle 39, + glucose", "value": 5.07}, {"measurement": "Fluorescence raw data, Channel Cycling A.530/585hp", "setting": "E. coli AG100tet [1]; cycle 39, without glucose", "value": 3.367}, {"measurement": "Fluorescence raw data, Channel Cycling A.530/585hp", "setting": "E. coli AG100tet [1]; cycle 40, + glucose", "value": 5.071}, {"measurement": "Fluorescence raw data, Channel Cycling A.530/585hp", "setting": "E. coli AG100tet [1]; cycle 40, without glucose", "value": 3.292}, {"measurement": "Fluorescence raw data, Channel Cycling A.530/585hp", "setting": "E. coli AG100tet [1]; cycle 41, + glucose", "value": 5.036}, {"measurement": "Fluorescence raw data, Channel Cycling A.530/585hp", "setting": "E. coli AG100tet [1]; cycle 41, without glucose", "value": 3.413}, {"measurement": "Fluorescence raw data, Channel Cycling A.530/585hp", "setting": "E. coli AG100tet [1]; cycle 42, + glucose", "value": 4.946}, {"measurement": "Fluorescence raw data, Channel Cycling A.530/585hp", "setting": "E. coli AG100tet [1]; cycle 42, without glucose", "value": 3.2813}, {"measurement": "Fluorescence raw data, Channel Cycling A.530/585hp", "setting": "E. coli AG100tet [1]; cycle 43, + glucose", "value": 5.023}, {"measurement": "Fluorescence raw data, Channel Cycling A.530/585hp", "setting": "E. coli AG100tet [1]; cycle 43, without glucose", "value": 3.329}, {"measurement": "Fluorescence raw data, Channel Cycling A.530/585hp", "setting": "E. coli AG100tet [1]; cycle 44, + glucose", "value": 4.8625}, {"measurement": "Fluorescence raw data, Channel Cycling A.530/585hp", "setting": "E. coli AG100tet [1]; cycle 44, without glucose", "value": 3.331}, {"measurement": "Fluorescence raw data, Channel Cycling A.530/585hp", "setting": "E. coli AG100tet [1]; cycle 45, without glucose", "value": 3.333}, {"measurement": "Fluorescence raw data, Channel Cycling A.530/585hp", "setting": "E. coli AG100tet [1]; cycle 46, without glucose", "value": 3.356}, {"measurement": "Fluorescence raw data, Channel Cycling A.530/585hp", "setting": "E. coli AG100tet [1]; cycle 47, without glucose", "value": 3.3344}, {"measurement": "Fluorescence raw data, Channel Cycling A.530/585hp", "setting": "E. coli AG100tet [1]; cycle 48, without glucose", "value": 3.246}, {"measurement": "Fluorescence raw data, Channel Cycling A.530/585hp", "setting": "E. coli AG100tet [1]; cycle 49, without glucose", "value": 3.317}, {"measurement": "Fluorescence raw data, Channel Cycling A.530/585hp", "setting": "E. coli AG100tet [1]; cycle 50, without glucose", "value": 3.306}, {"measurement": "Fluorescence raw data, Channel Cycling A.530/585hp", "setting": "E. coli AG100tet [1]; cycle 51, without glucose", "value": 3.275}, {"measurement": "Fluorescence raw data, Channel Cycling A.530/585hp", "setting": "E. coli AG100tet [1]; cycle 52, without glucose", "value": 3.293}, {"measurement": "Fluorescence raw data, Channel Cycling A.530/585hp", "setting": "E. coli AG100tet [1]; cycle 53, without glucose", "value": 3.359}, {"measurement": "Fluorescence raw data, Channel Cycling A.530/585hp", "setting": "E. coli AG100tet [1]; cycle 54, without glucose", "value": 3.295}, {"measurement": "Fluorescence raw data, Channel Cycling A.530/585hp", "setting": "E. coli AG100tet [1]; cycle 55, without glucose", "value": 3.253}, {"measurement": "Fluorescence raw data, Channel Cycling A.530/585hp", "setting": "E. coli AG100tet [1]; cycle 56, without glucose", "value": 3.229}, {"measurement": "Fluorescence raw data, Channel Cycling A.530/585hp", "setting": "E. coli AG100tet [1]; cycle 57, without glucose", "value": 3.179}, {"measurement": "Fluorescence raw data, Channel Cycling A.530/585hp", "setting": "E. coli AG100tet [1]; cycle 58, without glucose", "value": 3.169}, {"measurement": "Fluorescence raw data, Channel Cycling A.530/585hp", "setting": "E. coli AG100tet [1]; cycle 59, without glucose", "value": 3.145}, {"measurement": "Fluorescence raw data, Channel Cycling A.530/585hp", "setting": "E. coli AG100tet [1]; cycle 60, without glucose", "value": 3.211}, {"measurement": "Fluorescence raw data, Channel Cycling A.530/585hp", "setting": "E. coli AG100tet [1]; cycle 61, without glucose", "value": 3.105}, {"measurement": "EtBr fluorescence", "setting": "E. coli AG100tet [2]; cycle 1", "value": 9.875}, {"measurement": "EtBr fluorescence", "setting": "E. coli AG100tet [2]; cycle 2", "value": 10.6846}, {"measurement": "EtBr fluorescence", "setting": "E. coli AG100tet [2]; cycle 3", "value": 11.6019}, {"measurement": "EtBr fluorescence", "setting": "E. coli AG100tet [2]; cycle 4", "value": 12.4491}, {"measurement": "EtBr fluorescence", "setting": "E. coli AG100tet [2]; cycle 5", "value": 13.6501}, {"measurement": "EtBr fluorescence", "setting": "E. coli AG100tet [2]; cycle 6", "value": 14.6495}, {"measurement": "EtBr fluorescence", "setting": "E. coli AG100tet [2]; cycle 7", "value": 15.6732}, {"measurement": "EtBr fluorescence", "setting": "E. coli AG100tet [2]; cycle 8", "value": 16.6247}, {"measurement": "EtBr fluorescence", "setting": "E. coli AG100tet [2]; cycle 9", "value": 17.8761}, {"measurement": "EtBr fluorescence", "setting": "E. coli AG100tet [2]; cycle 10", "value": 18.9066}, {"measurement": "EtBr fluorescence", "setting": "E. coli AG100tet [2]; cycle 11", "value": 20.4282}, {"measurement": "EtBr fluorescence", "setting": "E. coli AG100tet [2]; cycle 12", "value": 21.7393}, {"measurement": "EtBr fluorescence", "setting": "E. coli AG100tet [2]; cycle 13", "value": 23.4754}, {"measurement": "EtBr fluorescence", "setting": "E. coli AG100tet [2]; cycle 14", "value": 25.1013}, {"measurement": "EtBr fluorescence", "setting": "E. coli AG100tet [2]; cycle 15", "value": 27.2614}, {"measurement": "EtBr fluorescence", "setting": "E. coli AG100tet [2]; cycle 16", "value": 29.2172}, {"measurement": "EtBr fluorescence", "setting": "E. coli AG100tet [2]; cycle 17", "value": 32.322}, {"measurement": "EtBr fluorescence", "setting": "E. coli AG100tet [2]; cycle 18", "value": 34.6681}, {"measurement": "EtBr fluorescence", "setting": "E. coli AG100tet [2]; cycle 19", "value": 38.0364}, {"measurement": "EtBr fluorescence", "setting": "E. coli AG100tet [2]; cycle 20", "value": 40.8691}, {"measurement": "EtBr fluorescence", "setting": "E. coli AG100tet [2]; cycle 21", "value": 44.3636}, {"measurement": "EtBr fluorescence", "setting": "E. coli AG100tet [2]; cycle 22", "value": 47.9426}, {"measurement": "EtBr fluorescence", "setting": "E. coli AG100tet [2]; cycle 23", "value": 51.4641}, {"measurement": "EtBr fluorescence", "setting": "E. coli AG100tet [2]; cycle 24", "value": 55.2307}, {"measurement": "EtBr fluorescence", "setting": "E. coli AG100tet [2]; cycle 25", "value": 58.9315}, {"measurement": "EtBr fluorescence", "setting": "E. coli AG100tet [2]; cycle 26", "value": 63.4348}, {"measurement": "EtBr fluorescence", "setting": "E. coli AG100tet [2]; cycle 27", "value": 67.7728}, {"measurement": "EtBr fluorescence", "setting": "E. coli AG100tet [2]; cycle 28", "value": 71.5821}, {"measurement": "EtBr fluorescence", "setting": "E. coli AG100tet [2]; cycle 29", "value": 76.2698}, {"measurement": "EtBr fluorescence", "setting": "E. coli AG100tet [2]; cycle 30", "value": 79.495}, {"measurement": "BacLight Live/Dead fluorescence 485/20,528/20", "setting": "E. coli AG100; 80 uM", "value": "153 and 118"}, {"measurement": "BacLight Live/Dead fluorescence 485/20,590/35", "setting": "E. coli AG100; 80 uM", "value": "38 and 30"}, {"measurement": "BacLight Live/Dead fluorescence 485/20,528/20", "setting": "E. coli AG100; 160 uM", "value": "278 and 253"}, {"measurement": "BacLight Live/Dead fluorescence 485/20,590/35", "setting": "E. coli AG100; 160 uM", "value": "85 and 82"}, {"measurement": "BacLight Live/Dead fluorescence 485/20,528/20", "setting": "E. coli AG100; 320 uM", "value": "277 and 252"}, {"measurement": "BacLight Live/Dead fluorescence 485/20,590/35", "setting": "E. coli AG100; 320 uM", "value": "87 and 78"}, {"measurement": "BacLight Live/Dead fluorescence 485/20,528/20", "setting": "E. coli AG100; 640 uM", "value": "160 and 178"}, {"measurement": "BacLight Live/Dead fluorescence 485/20,590/35", "setting": "E. coli AG100; 640 uM", "value": "79 and 82"}, {"measurement": "membrane permeability increase / membrane permeation", "setting": "E. coli AG100; AG100, 80 µM", "value": 4, "unit": "%"}, {"measurement": "effect on cell membrane integrity", "setting": "E. coli AG100; AG100, 80 µM (≈1/8 MIC), 1 h", "value": "did not alter"}, {"measurement": "membrane permeation", "setting": "E. coli AG100; AG100, 160 μM (1/4 MIC)", "value": 22, "unit": "%"}, {"measurement": "membrane permeation", "setting": "E. coli AG100; AG100, 320 μM (1/2 MIC)", "value": 28, "unit": "%"}, {"measurement": "membrane permeation", "setting": "E. coli AG100; AG100, 640 μM (MIC)", "value": 50, "unit": "%"}, {"measurement": "reduction of membrane integrity", "setting": "E. coli AG100; AG100, half MIC, 1 h", "value": 28, "unit": "%"}]}]}
